{"source": "ChEMBL document CHEMBL1201862", "about": "“PubChem BioAssay data set” (2004)", "assay_in_all_cases": "growth of human tumour cells (NCI), 48 h", "key": {"[1]": {"test_system": "LXFL 529"}, "[2]": {"test_system": "SF-268"}, "[3]": {"test_system": "TK-10"}, "[4]": {"test_system": "OVCAR-8"}, "[5]": {"test_system": "SK-MEL-28"}, "[6]": {"test_system": "UACC-257"}, "[7]": {"test_system": "HCC 2998"}, "[8]": {"test_system": "UACC-62"}, "[9]": {"test_system": "OVCAR-5"}, "[10]": {"test_system": "CAKI-1"}, "[11]": {"test_system": "HL-60"}, "[12]": {"test_system": "HT-29"}, "[13]": {"test_system": "UO-31"}, "[14]": {"test_system": "SK-OV-3"}, "[15]": {"test_system": "HOP-92"}, "[16]": {"test_system": "SK-MEL-5"}, "[17]": {"test_system": "HOP-62"}, "[18]": {"test_system": "LOX IMVI"}, "[19]": {"test_system": "NCI-H23"}, "[20]": {"test_system": "SF-539"}, "[21]": {"test_system": "HCT-116"}, "[22]": {"test_system": "MOLT-4"}, "[23]": {"test_system": "SR"}, "[24]": {"test_system": "IGROV-1"}, "[25]": {"test_system": "SNB-19"}, "[26]": {"test_system": "M14"}, "[27]": {"test_system": "A498"}, "[28]": {"test_system": "SN12C"}, "[29]": {"test_system": "KM-20L2"}, "[30]": {"test_system": "Malme-3M"}, "[31]": {"test_system": "A549"}, "[32]": {"test_system": "SNB-75"}, "[33]": {"test_system": "U-251"}, "[34]": {"test_system": "SW-620"}, "[35]": {"test_system": "DMS-114"}, "[36]": {"test_system": "DLD-1"}, "[37]": {"test_system": "ACHN"}, "[38]": {"test_system": "OVCAR-4"}, "[39]": {"test_system": "CCRF-CEM"}, "[40]": {"test_system": "K562"}, "[41]": {"test_system": "NCI-H522"}, "[42]": {"test_system": "786-0"}, "[43]": {"test_system": "RXF 393"}, "[44]": {"test_system": "SK-MEL-2"}, "[45]": {"test_system": "COLO 205"}, "[46]": {"test_system": "EKVX"}, "[47]": {"test_system": "RPMI-8226"}, "[48]": {"test_system": "M19-MEL"}, "[49]": {"test_system": "NCI-H226"}, "[50]": {"test_system": "SF-295"}, "[51]": {"test_system": "DMS-273"}, "[52]": {"test_system": "SNB-78"}, "[53]": {"test_system": "KM12"}, "[54]": {"test_system": "HCT-15"}}, "note": "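Tested at 5 concentrations; 48 h exposure; 96-well plates; endpoints linearly interpolated, else capped at highest concentration. GI50: concentration for 50% inhibition of growth.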 Calls of active or inactive are those of the source. Cut-off read from the data, not from the text of the source: active = GI50 up to about 1.1 µM and inactive = higher.", "data": [{"compound": "Nc1nc(=S)c2ncn(C3CC(O)C(CO)O3)c2[nH]1", "note": "(stereo not given)", "values": [{"measurement": "GI50", "setting": "[1]", "value": "> 100 µM (inactive)"}]}, {"compound": "COC1C=COC2(C)Oc3c(C)c(O)c4c(O)c(c(/C=N/N5CCN(N)CC5)c(O)c4c3C2=O)NC(=O)C(C)=CC=CC(C)C(O)C(C)C(O)C(C)C(OC(C)=O)C1C", "note": "(stereo not given)", "values": [{"measurement": "GI50", "setting": "[2]", "value": "62.5 µM (inactive)"}, {"measurement": "GI50", "setting": "[3]", "value": "> 100 µM (inactive)"}, {"measurement": "GI50", "setting": "[4]", "value": "88.3 µM (inactive)"}, {"measurement": "GI50", "setting": "[5]", "value": "34.4 µM (inactive)"}, {"measurement": "GI50", "setting": "[6]", "value": "> 100 µM (inactive)"}, {"measurement": "GI50", "setting": "[7]", "value": "> 100 µM (inactive)"}, {"measurement": "GI50", "setting": "[8]", "value": "> 100 µM (inactive)"}, {"measurement": "GI50", "setting": "[9]", "value": "> 100 µM (inactive)"}, {"measurement": "GI50", "setting": "[10]", "value": "> 100 µM (inactive)"}, {"measurement": "GI50", "setting": "[11]", "value": "35.2 µM (inactive)"}, {"measurement": "GI50", "setting": "[12]", "value": "38.4 µM (inactive)"}, {"measurement": "GI50", "setting": "[13]", "value": "41.7 µM (inactive)"}, {"measurement": "GI50", "setting": "[14]", "value": "> 100 µM (inactive)"}, {"measurement": "GI50", "setting": "[15]", "value": "65.6 µM (inactive)"}, {"measurement": "GI50", "setting": "[16]", "value": "84.3 µM (inactive)"}, {"measurement": "GI50", "setting": "[17]", "value": "> 100 µM (inactive)"}, {"measurement": "GI50", "setting": "[18]", "value": "69 µM (inactive)"}, {"measurement": "GI50", "setting": "[19]", "value": "31.9 µM (inactive)"}, {"measurement": "GI50", "setting": "[20]", "value": "> 100 µM (inactive)"}, {"measurement": "GI50", "setting": "[21]", "value": "30.7 µM (inactive)"}, {"measurement": "GI50", "setting": "[22]", "value": "39 µM (inactive)"}, {"measurement": "GI50", "setting": "[23]", "value": "34.1 µM (inactive)"}, {"measurement": "GI50", "setting": "[24]", "value": "> 100 µM (inactive)"}, {"measurement": "GI50", "setting": "[25]", "value": "> 100 µM (inactive)"}, {"measurement": "GI50", "setting": "[26]", "value": "> 100 µM (inactive)"}, {"measurement": "GI50", "setting": "[27]", "value": "> 100 µM (inactive)"}, {"measurement": "GI50", "setting": "[28]", "value": "> 100 µM (inactive)"}, {"measurement": "GI50", "setting": "[29]", "value": "> 100 µM (inactive)"}, {"measurement": "GI50", "setting": "[30]", "value": "> 100 µM (inactive)"}, {"measurement": "GI50", "setting": "[31]", "value": "> 100 µM (inactive)"}, {"measurement": "GI50", "setting": "[32]", "value": "34.7 µM (inactive)"}, {"measurement": "GI50", "setting": "[33]", "value": "> 100 µM (inactive)"}, {"measurement": "GI50", "setting": "[34]", "value": "48 µM (inactive)"}, {"measurement": "GI50", "setting": "[35]", "value": "64.4 µM (inactive)"}, {"measurement": "GI50", "setting": "[36]", "value": "82.6 µM (inactive)"}, {"measurement": "GI50", "setting": "[37]", "value": "> 100 µM (inactive)"}, {"measurement": "GI50", "setting": "[38]", "value": "70.5 µM (inactive)"}, {"measurement": "GI50", "setting": "[39]", "value": "20.1 µM (inactive)"}, {"measurement": "GI50", "setting": "[40]", "value": "44.4 µM (inactive)"}, {"measurement": "GI50", "setting": "[41]", "value": "34 µM (inactive)"}, {"measurement": "GI50", "setting": "[42]", "value": "> 100 µM (inactive)"}, {"measurement": "GI50", "setting": "[43]", "value": "34.7 µM (inactive)"}, {"measurement": "GI50", "setting": "[44]", "value": "> 100 µM (inactive)"}, {"measurement": "GI50", "setting": "[45]", "value": "37.8 µM (inactive)"}, {"measurement": "GI50", "setting": "[46]", "value": "> 100 µM (inactive)"}, {"measurement": "GI50", "setting": "[47]", "value": "29.7 µM (inactive)"}, {"measurement": "GI50", "setting": "[48]", "value": "42 µM (inactive)"}, {"measurement": "GI50", "setting": "[49]", "value": "> 100 µM (inactive)"}, {"measurement": "GI50", "setting": "[50]", "value": "84.3 µM (inactive)"}, {"measurement": "GI50", "setting": "[51]", "value": "> 100 µM (inactive)"}, {"measurement": "GI50", "setting": "[1]", "value": "63.4 µM (inactive)"}, {"measurement": "GI50", "setting": "[52]", "value": "88.1 µM (inactive)"}, {"measurement": "GI50", "setting": "[53]", "value": "68.4 µM (inactive)"}, {"measurement": "GI50", "setting": "[54]", "value": 80.7, "unit": "µM"}]}]}
